Assay results: patent US11465987B2, “Compounds for treatment of cancer” (ONCTERNAL THERAPEUTICS, INC., priority 2012, dated 2022)
Where two headings read alike, the source gives them in different places.

Columns and labels:
[1] = system: LNCaP human prostate cancer cell line; experiment: Cytotoxicity (SRB) assay, LNCaP; format: cell-based
From the text: (§1) Cells were stained with SRB solution.

[2] = system: PPC-1 human prostate cancer cell line; experiment: Cytotoxicity (SRB) assay, PPC-1; format: cell-based
From the text: as §1

[3] = system: B16-F1 mouse melanoma cell line; experiment: Cytotoxicity (SRB) assay, B16-F1; format: cell-based
[4] = system: WM-164 human melanoma cell line; experiment: Cytotoxicity (SRB) assay, WM-164; format: cell-based
[5] = system: DU 145 human prostate cancer cell line; experiment: Cytotoxicity (SRB) assay, DU 145; format: cell-based
From the text: as §1

[6] = system: PC-3 human prostate cancer cell line; experiment: cells
From the text: as §1

[7] = system: A375 human melanoma cell line; experiment: Cytotoxicity (SRB) assay, A375; format: cell-based
[8] = system: melanoma and prostate cancer cell lines; experiment: Antiproliferative activity summarised over the cell line panel (range or average); format: cell-based
PC-3 xenograft = experiment: In vivo PC-3 prostate tumor xenograft; conditions: PC-3, 50 mg/kg i.p. daily; control 680 mm^3
[9] = system: MDA-MB-435/LCCMDR1 multidrug-resistant melanoma cells; experiment: Cytotoxicity (SRB) assay, MDA-MB-435/LCCMDR1; format: cell-based
[10] = Homo sapiens, LNCaP, Table 11, read-out: IC50, LNCaP
[11] = Homo sapiens, PPC-1, Table 11, read-out: IC50, PPC-1
[12] = Mus musculus, B16-F1, Table 11, read-out: IC50, B16-F1
[13] = Homo sapiens, WM164, Table 11, read-out: IC50, WM164
[14] = Homo sapiens, DU-145, Table 11, read-out: IC50, Du 145
[15] = Homo sapiens, A-375, Table 11, read-out: IC50, A375
[16] = Tables 11-13, read-out: IC50 (average of all seven cell lines)

IC50 ([6]; read-out: IC50, PC-3, Table 11) [µM] | IC50 [8, 16] [µM] | Compound | IC50 [1, 10] [µM] | IC50 [2, 11] [µM] | IC50 [3, 12] [µM] | IC50 [4, 13] [µM] | IC50 [5, 14] [µM] | IC50 [7, 15] [µM] | also measured
> 10 | > 10 | COc1cc(C(=O)n2ccnc2-c2ccccc2)cc(OC)c1OC [12aaa, (2-phenyl-1H-imidazol-1-yl)(3,4,5-trimethoxyphenyl)methanone] | > 10 | > 10 | > 10 | > 10 | > 10 | > 10 | –
– | – | COc1cc(C(=O)c2csc(-c3ccccc3)n2)cc(OC)c1OCCN1C(=O)c2ccccc2C1=O [compound 20] | – | – | – | – | – | – | IC50 ([1]; Homo sapiens, LNCaP, Table 6A, read-out: IC50 ± SEM, LNCaP (converted)): 1.45 µM; IC50 ([2]; Homo sapiens, PPC-1, Table 6A, read-out: IC50 ± SEM, PPC-1 (converted)): 0.633 µM; IC50 ([3]; Mus musculus, B16-F1, Table 6A, read-out: IC50 ± SEM, B16-F1 (converted)): 3.1 µM; IC50 ([4]; Homo sapiens, WM164, Table 6A, read-out: IC50 ± SEM, WM164 (converted)): 1.3 µM; IC50 ([5]; Homo sapiens, DU-145, Table 6A, read-out: IC50 ± SEM, DU 145): 0.642 µM; IC50 ([6]; Homo sapiens, read-out: IC50 ± SEM, PC-3, Table 6A): > 10 µM; IC50 ([7]; Homo sapiens, A-375, Table 6A, read-out: IC50 ± SEM, A375 (converted)): 2.3 µM
> 10 | > 10 | COc1ccc(C(=O)n2ccnc2-c2ccccc2)cc1 [12aba, (4-methoxyphenyl)(2-phenyl-1H-imidazol-1-yl)methanone] | > 10 | > 10 | > 10 | > 10 | > 10 | > 10 | –
> 10 | > 10 | COc1ccc(C(=O)c2c[nH]c(-c3ccccc3)n2)cc1OC [12ae, (3,4-dimethoxyphenyl)(2-phenyl-1H-imidazol-4-yl)methanone] | > 10 | > 10 | > 10 | > 10 | > 10 | > 10 | –
> 10 | > 10 | O=[N+]([O-])c1ccc(-c2nccn2S(=O)(=O)c2ccccc2)cc1 [10x, 2-(4-nitrophenyl)-1-(phenylsulfonyl)-1H-imidazole] | > 10 | > 10 | > 10 | > 10 | > 10 | > 10 | –
> 10 | > 10 | O=S(=O)(c1ccccc1)n1ccnc1-c1ccc(OCc2ccccc2)cc1 [10j, 2-(4-(benzyloxy)phenyl)-1-(phenylsulfonyl)-1H-imidazole] | > 10 | > 10 | > 10 | > 10 | > 10 | > 10 | –
– | – | O=C(c1ccc(F)cc1)c1c[nH]c(-c2ccc(O)cc2)n1 [12kb] | – | – | – | – | – | – | IC50 ([1]; Table 12, read-out: IC50 ± SEM, LNCaP (converted)): 10 µM; IC50 ([2]; Table 12, read-out: IC50 ± SEM, PPC-1 (converted)): > 10 µM; IC50 ([3]; Table 12, read-out: IC50 ± SEM, B16-F1 (converted)): > 10 µM; IC50 ([4]; Table 12, read-out: IC50 ± SEM, WM164 (converted)): > 10 µM; IC50 ([5]; Table 12, read-out: IC50 ± SEM, Du 145): > 10 µM; IC50 ([6]; read-out: IC50 ± SEM, PC-3, Table 12): > 10 µM; IC50 ([7]; Table 12, read-out: IC50 ± SEM, A375 (converted)): 10 µM
– | – | O=C(c1ccc2[nH]ccc2c1)c1csc(-c2cc3ccccc3[nH]2)n1 [compound 21, (2-(1H-indol-2-yl)thiazol-4-yl)(1H-indol-5-yl)methanone] | – | – | – | – | – | – | tumor volume at day 21 (PC-3 xenograft): 331 mm^3
> 10 | > 10 | O=C(c1cccc(F)c1)c1c[nH]c(-c2ccccc2)n1 [12ag, (3-fluorophenyl)(2-phenyl-1H-imidazol-4-yl)methanone] | > 10 | > 10 | > 10 | > 10 | > 10 | > 10 | –
– | – | O=C(c1ccc(F)cc1)c1cn(S(=O)(=O)c2ccccc2)c(-c2ccc(Cl)cc2)n1 [11fb, (2-(4-chlorophenyl)-1-(phenylsulfonyl)-1H-imidazol-4-yl)(4-fluorophenyl)methanone] | – | – | – | – | – | – | IC50 ([9]; Homo sapiens, MDA-MB-435/LCCMDR1, read-out: IC50 MDR melanoma cell line): 0.035 µM; resistance index ([9]; MDA-MB-435/LCCMDR1 vs MDA-MB-435): 0.7
> 10 | > 10 | O=S(=O)(c1ccccc1)n1ccnc1-c1ccccc1 [10a, 2-phenyl-1-(phenylsulfonyl)-1H-imidazole] | > 10 | > 10 | > 10 | > 10 | > 10 | > 10 | –
– | – | COc1ccc(-c2nc(C(=O)c3cc(OC)c(OC)c(OC)c3)c[nH]2)cc1 [12ca, (2-(4-methoxyphenyl)-1H-imidazol-4-yl)(3,4,5-trimethoxyphenyl)methanone] | – | – | – | – | – | – | IC50 ([1]; Homo sapiens, LNCaP, Table 12, read-out: IC50 ± SEM, LNCaP (converted)): 0.031 µM; IC50 ([3]; Mus musculus, B16-F1, Table 12, read-out: IC50 ± SEM, B16-F1 (converted)): 0.108 µM; IC50 ([4]; Homo sapiens, WM164, Table 12, read-out: IC50 ± SEM, WM164 (converted)): 0.031 µM; IC50 ([6]; Homo sapiens, read-out: IC50 ± SEM, PC-3, Table 12): 0.045 µM; IC50 ([7]; Homo sapiens, A-375, Table 12, read-out: IC50 ± SEM, A375 (converted)): 0.03 µM; IC50 ([8]; read-out: IC50 (range over tested cell lines)): 0.0079 to 0.11 µM
